These are literature values, as cited in patent US20100221327A1, “Nanoparticulate azelnidipine formulations” (Elan Pharma International Limited, priority 2005, published 2010).

“Also recorded” adds a separate entry of the source.

In the case of `CC1=C(C(=O)OC(C)C)C(c2cccc([N+](=O)[O-])c2)C(C(=O)OC2CN(C(c3ccccc3)c3ccccc3)C2)=C(N)N1` (racemic) [Azelnidipine, (±)-3-(1-Diphenylmethylazetidin-3-yl)-5-isopropyl 2-amino-1,4-dihydro-6-methyl-4-(3-nitrophenyl)-3,5-pyridinedicarboxylate], the Solubility in water entry is recorded as “only slightly soluble; also recorded: practically insoluble”.
